Experiments:
[1] = system: Cbln (Cerebellin 1 precursor protein); assay: Quantitative RT-PCR, relative gene expression of Cbln in SH-SY5Y cells; assay type: cell-based, human; conditions: 30 μM each, except after 2-day exposition
Experimental: (§1) SH-SY5Y cell lines, which were provided by the institute of human genetics of university hospital Eppendorf and which they in turn received from Braunschweig resource center, were used again for the RT-PCR experiments (reverse transcriptase polymerase chain reaction) carried out for this purpose.
(§2) The cells were incubated in MEM (Minimum essential medium, Life Technologies) with 10% FCS (fetal calf serum, Biochrom AG) and penicillin/streptomycin (Biochrom AG). The cells were seeded with a density of 1×10^5 cells/cm^2 in 25 cm^2 cell culture bottles (Falcon, cell culture treated) with 5 mL medium. […]
(§3) The RNA-isolation was done with the HighPure RNA Isolation kit of the company Roche. […] The concentration of RNA was measured with nanoDrop spectrometer and the RNA integrity was determined with the aid of the Bioanalyzer 2100 (Agilent). […]
(§4) After the reaction, this run was diluted 1:4 and thereof 2 μL per each quantitative RT-PCR were used. This was performed in a LightCycler 480 under standard conditions in the SybrGreen format with annealing temperatures determined for each primer individually. […]
(§5) The specificity was verified by melting curve analysis and subsequent gel electrophoresis. For each PCR the PCR efficiency and the Cq value was determined by the program LinRegPCR and these were used in further calculations. […]

[2] = system: BTG2 (B-cell translocation gene 2); assay: Quantitative RT-PCR, relative gene expression of BTG2 in SH-SY5Y cells; assay type: cell-based, human; conditions: 10 μM 6F9MβC, except after 2-day exposition
Experimental: as §1, §2, §3, §4, §5

[3] = system: BDNF (brain-derived neurotrophic factor); assay: Quantitative RT-PCR, relative gene expression of BDNF in SH-SY5Y cells; assay type: cell-based, human; conditions: 30 μM each, SH-SY5Y
Experimental: as §1
(§6) The cells were incubated in MEM (Minimum essential medium, Life Technologies) with 10% FCS (fetal calf serum, Biochrom AG) and penicillin/streptomycin (Biochrom AG). The cells were seeded with a density of 1×10^5 cells/cm^2 in 25 cm^2 cell culture bottles (Falcon, cell culture treated) with 5 mL medium. Stock solutions of 10 mmol/L of compounds 9-methyl-β-carboline (AC-002 or 9MβC) and 6-fluoro-9-methyl-β-carboline (AC-102 or 6F9MβC), respectively were prepared in distillated water and sterile filtered. One day after the cell seeding the compounds were added in corresponding amounts (5-55 μL) to reach final concentration in the medium of 10 μM, 20 μM and 30 μM for 6F9MβC and 30 μM, 50 μM and 70 μM for 9MβC. The references received only the corresponding amount of solvent (distilled water). The medium was changed once a week.
(§7) The cells were regularly microscopically examined and harvest after 2, 7 and 14 days of incubation time, washed with PBS and immediately frozen at −80° C.
as §3, §4
The specificity was verified by melting curve analysis and subsequent gel electrophoresis. For each PCR the PCR efficiency and the Cq value was determined by the program LinRegPCR and these were used in further calculations. […] Every measured value from FIGS. 5A-5I represents a mean value of 3 independent biologic samples. […]

NT3 (Neurotrophin 3) = assay: Quantitative RT-PCR, relative gene expression of NT3 in SH-SY5Y cells; assay type: cell-based, human; conditions: 30 μM each, 14-day exposition
Experimental: as §1, §2, §3, §4, §5

[4] = Degradation in liver homogenate to toxic dimethylated degradation products (HPLC); conditions: rat liver homogenate, conclusion
Experimental: Also a reference measurement with pure 6-fluoro-9-methyl-β-carboline (6F9MβC) was performed.
To simulate the degradation process in the liver, different concentrations (1 μM, 10 μM and 100 μM) of 6-fluoro-9-methyl-β-carboline (6F9MβC) were incubated with homogenized rat liver for an hour under physiological conditions (37° C. in physiological phosphate-buffered sodium chloride solution, PBS). Subsequently, a HPLC measurement of the filtrated extract was carried out.
The characterization of each substance was achieved by high-performance liquid chromatography (HPLC, partly also named as high-pressure liquid chromatography). For HPLC the eluent consisted to 45% of 90% acetonitrile and to 55% of ammonium acetate (40 mM, pH<5). The flow rate was 0.4 mL/min and injection volume was 10 μL. Each sample was diluted with 60% methanol, if the signal was too strong.

[5] = system: human neuroblastoma cells (SH-SY5Y); assay: Differentiation of human neuroblastoma cells (SH-SY5Y), morphological examination; assay type: cell-based; conditions: SH-SY5Y
Experimental: The SH-SY5Y cell line was obtained from the German collection of microorganisms and cell cultures—DSMZ, Braunschweig. The cells were cultivated in MEM (Minimum essential medium, Life Technologies) with 10% FCS (fetal calf serum, Biochrom AG) and penicillin/streptomycin (Biochrom AG). For morphological examinations the cells were seeded in a density of 1.5×10^4 cells/cm^2 in 24-well plates (Falcon, cell culture treated) with 1 mL medium. A stock solution of 10 mmol/L of the compound according to the invention 6-fluoro-9-methyl-β-carboline was prepared in 50% ethanol and sterile filtered. Five hours after seeding of the cells the compound according to the invention 6-fluoro-9-methyl-β-carboline was added in the corresponding amount to the medium achieving the desired final concentration. The medium was changed once a week. The cells were regularly microscopically examined. Microscopic images were taken at BZ Keyence 10 with a 10×lens and 4×digital zoom. An automatic contrast enhancement was made with the program BZ Analyzer.

[6] = system: DKK1 (Dickkopf-related protein 1); assay: Quantitative RT-PCR, relative gene expression of DKK1 in SH-SY5Y cells; assay type: cell-based, human
Experimental: as §1, §6, §7
The RNA-isolation was done with the HighPure RNA Isolation kit of the company Roche. This isolation includes a DNaseI digestion. The concentration of RNA was measured with nanoDrop spectrometer and the RNA integrity was determined with the aid of the Bioanalyzer 2100 (Agilent). By using random hexamer primers, protector RNA inhibitor (Roche) and transcriptor reverse transcriptase (fermentas), 300 ng RNA were transcribed into cDNA per each sample.
After the reaction, this run was diluted 1:4 and thereof 2 μL per each quantitative RT-PCR were used. This was performed in a LightCycler 480 under standard conditions in the SybrGreen format with annealing temperatures determined for each primer individually. If possible, exon spanning primers were used.
The specificity was verified by melting curve analysis and subsequent gel electrophoresis. For each PCR the PCR efficiency and the Cq value was determined by the program LinRegPCR and these were used in further calculations. B2M (β2-microglobulin) was identified from multiple reference genes to be suitable for examination conditions. All results are results relative to the corresponding reference conditions, at which only solvent was administered for the specified period of time (i.e. 2 days, 7 days or 14 days). In FIGS. 5A to 5I are also relative gene expressions (relative to reference conditions) presented. Here, the 2-day exposition is presented in light grey, the 7-day exposition in dark grey and the 14-day exposition in black. Every measured value from FIGS. 5A-5I represents a mean value of 3 independent biologic samples.
Analogous to example 4 RT-PCR experiments with the inventive active agent 7-fluoro-9-methyl-β-carboline (7F9MβC) were also performed for some important cellular factors. The experimental procedure was here identical to the experiments with 6-fluoro-9-methyl-β-carboline and 9-methyl-β-carboline. Here the same (like for 6F9MβC) final concentrations of 30 μM, 50 μM and 70 μM 7F9MβC for the culture medium were employed. The examined factors were BDNF (brain-derived neurotrophic factor), Lif (Leukemia inhibitory factor), DRD2S (short variant of dopamine receptor subtype 2) as well as DKK1 (Dickkopf-related protein 1). […]

Structure (SMILES): Cn1c2ccc(F)cc2c2ccncc21 [6F9MβC, 6-fluoro-9-methyl-β-carboline]
- Cbln expression relative to expression induced by 9MβC [1]: approximately 1.5 times
- BTG2 expression compared to the highest concentration of 9MβC [2]: comparable
- BDNF expression relative to expression induced by 9MβC [3]: approximately twice as high
- NT3 expression relative to expression induced by 9MβC (NT3 (Neurotrophin 3)): approximately 3.5 times
- metabolization to known toxic (di-methylated) degradation products [4]: does not lead to toxic di-methylated products
- metabolization to known toxic (di-methylated) degradation products ([4]; listed as 6-fluoro-9-methyl-β-carboline): does not metabolize to known toxic degradation products
- concentration at which a comparable differentiation of the tested cells is observed ([5]; 15 days incubation): 30 µM
- effect on proliferation and morphology of cells ([5]; 15 days, increasing concentrations, pronounced at 30 μM vs 0 μM): inhibits proliferation of cells and induces sprouting of slim extensions as well as a change in size and shape of the cells
- DKK1 expression compared to the highest concentration of 9MβC ([6]; 10 μM 6F9MβC): comparable or even higher
- DKK1 expression relative to expression induced by 9MβC ([6]; 30 μM each, 14-day exposition): comparable

— patent US9630964B2, “Fluoro-9-methyl-β-carbolines” (priority 2013, dated 2017)
